{
  "source": "paper PMC3172300",
  "about": "“Modulation of Catalytic Activity in Multi-Domain Protein Tyrosine Phosphatases” (PLoS ONE, 2011)",
  "key": {"[1]": {"system": "DLAR D1 active site cysteine to serine mutant", "assay": "Phosphatase assay using pNPP, DLAR D1 active site Cys to Ser mutant", "format": "biochemical, Drosophila melanogaster", "conditions": "active site cysteine to serine in D1", "source_text": "Cosmids containing the genes encoding RPTPs DLAR and PTP99A were a kind gift from Prof. Kai Zinn (Caltech). The PTP domains of PTP99A and DLAR were PCR amplified and ligated between the NheI and XhoI restriction sites of the bacterial expression vectors pET-15b and pET-22b. The active site mutants (with the nucleophilic cysteines in the PTP domains of DLAR and PTP99A mutated to serines) were obtained by using a single primer approach. An XbaI site was incorporated in the primers to aid screening of mutants. All clones were confirmed by sequencing (Macrogen Inc.). The details of the expression constructs are compiled in Table S1 and Figure 1a.\nPhosphatase activity of the recombinant PTP domains was determined by using para-Nitrophenylphosphate (pNPP), a small molecule generic substrate, as well as phosphotyrosine containing peptides. The pNPP assay was performed as reported previously, with a modification in the buffer composition (25 mM Citrate, Glycine and HEPES (CGH), pH 6.5, 100 mM NaCl and 2 mM DTT). Phosphatase activity with the phosphotyrosine peptides was ascertained by the malachite green reaction as described for PTPs previously. […] The reaction was stopped by the addition of the Biomol Green reagent (Enzo Life Sciences) and the colour developed after 20 min was quantified at 650 nm. […]"}, "[2]": {"target": "T1, PTP99A D1D2 (Drosophila melanogaster, UniProt P35832)", "T1 sequence (P35832 450-1050)": "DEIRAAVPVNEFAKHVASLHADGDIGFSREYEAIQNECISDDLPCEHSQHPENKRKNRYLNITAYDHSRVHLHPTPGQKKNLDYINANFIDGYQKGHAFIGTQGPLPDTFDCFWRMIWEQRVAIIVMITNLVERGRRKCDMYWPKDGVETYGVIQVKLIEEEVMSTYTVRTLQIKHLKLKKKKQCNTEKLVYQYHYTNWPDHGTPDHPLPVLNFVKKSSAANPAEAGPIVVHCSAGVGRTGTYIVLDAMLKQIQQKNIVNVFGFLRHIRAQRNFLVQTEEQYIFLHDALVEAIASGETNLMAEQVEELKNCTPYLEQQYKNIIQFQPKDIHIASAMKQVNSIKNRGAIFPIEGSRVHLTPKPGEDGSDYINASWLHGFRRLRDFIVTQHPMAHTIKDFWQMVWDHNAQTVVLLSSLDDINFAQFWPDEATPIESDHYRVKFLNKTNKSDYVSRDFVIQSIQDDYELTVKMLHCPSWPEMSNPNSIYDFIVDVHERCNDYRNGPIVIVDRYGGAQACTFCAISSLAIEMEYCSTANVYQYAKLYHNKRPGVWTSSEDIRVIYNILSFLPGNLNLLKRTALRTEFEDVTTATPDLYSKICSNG", "assay": "Phosphatase assay using pNPP, PTP99A D1D2", "format": "biochemical", "parameters": "PTP99A 450-1050; His tag (pET-15b or pET-22b); made in house; host or cells: E. coli BL21(DE3)", "conditions": "CGH buffer pH 6.5, 100 mM NaCl, 2 mM DTT", "experimental": "(§1) Phosphatase activity of the recombinant PTP domains was determined by using para-Nitrophenylphosphate (pNPP), a small molecule generic substrate, as well as phosphotyrosine containing peptides. The pNPP assay was performed as reported previously, with a modification in the buffer composition (25 mM Citrate, Glycine and HEPES (CGH), pH 6.5, 100 mM NaCl and 2 mM DTT). Phosphatase activity with the phosphotyrosine peptides was ascertained by the malachite green reaction as described for PTPs previously. Briefly, the reaction mixture comprised of 0.01 µM protein incubated with increasing concentrations of different peptides in 25 mM citrate buffer pH 6.0, 100 mM NaCl and 2 mM DTT for 15 min at 25°C. The reaction was stopped by the addition of the Biomol Green reagent (Enzo Life Sciences) and the colour developed after 20 min was quantified at 650 nm. For all the assays, kinetic constants for the steady state catalysis were obtained by fitting the reaction curves to the Michaelis-Menten equation using the nonlinear regression module of Sigma plot software (Systat Software, Inc.).\n(§2) The tandem PTP domains of PTP99A (PTP99A D1D2) and DLAR (DLAR D1D2) , the individual PTP domains (D1 and D2) as well as the active site mutants were expressed in E. coli and were purified using the protocols described earlier (Figure 1a, Figure S1a, b & c). The biochemical characterization and catalytic activity measurements were performed using pNPP as a substrate. […] Thus the D2 domain appears to have a regulatory role in both RPTPs- decreasing the catalytic activity in the case of DLAR while increasing the catalytic activity in the case of PTP99A (Figure 1b)."}, "[3]": {"target": "T2, DLAR D1 (Drosophila melanogaster, UniProt P16621)", "T2 construct": "DLAR 1448-1746; His tag (pET-15b or pET-22b); made in house; host or cells: E. coli BL21(DE3)", "T2 sequence (P16621 1448-1746)": "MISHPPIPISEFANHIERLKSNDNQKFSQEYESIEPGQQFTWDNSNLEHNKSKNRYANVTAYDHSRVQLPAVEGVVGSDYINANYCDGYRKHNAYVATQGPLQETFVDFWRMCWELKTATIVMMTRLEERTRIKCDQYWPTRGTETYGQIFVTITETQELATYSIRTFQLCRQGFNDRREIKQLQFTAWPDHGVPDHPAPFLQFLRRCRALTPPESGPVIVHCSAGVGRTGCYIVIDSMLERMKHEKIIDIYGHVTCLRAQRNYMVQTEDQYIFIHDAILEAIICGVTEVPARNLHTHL", "assay": "Phosphatase assay using pNPP, DLAR D1", "format": "biochemical", "conditions": "CGH buffer pH 6.5, 100 mM NaCl, 2 mM DTT", "experimental": "as §1, §2"}, "[4]": {"target": "T3, DLAR D1 D2HSS (Drosophila melanogaster, UniProt P16621, C1961S)", "T3 construct": "DLAR 1448-2029; His tag (pET-15b or pET-22b); made in house; host or cells: E. coli BL21(DE3)", "T3 sequence (P16621 1448-2029 C1961S)": "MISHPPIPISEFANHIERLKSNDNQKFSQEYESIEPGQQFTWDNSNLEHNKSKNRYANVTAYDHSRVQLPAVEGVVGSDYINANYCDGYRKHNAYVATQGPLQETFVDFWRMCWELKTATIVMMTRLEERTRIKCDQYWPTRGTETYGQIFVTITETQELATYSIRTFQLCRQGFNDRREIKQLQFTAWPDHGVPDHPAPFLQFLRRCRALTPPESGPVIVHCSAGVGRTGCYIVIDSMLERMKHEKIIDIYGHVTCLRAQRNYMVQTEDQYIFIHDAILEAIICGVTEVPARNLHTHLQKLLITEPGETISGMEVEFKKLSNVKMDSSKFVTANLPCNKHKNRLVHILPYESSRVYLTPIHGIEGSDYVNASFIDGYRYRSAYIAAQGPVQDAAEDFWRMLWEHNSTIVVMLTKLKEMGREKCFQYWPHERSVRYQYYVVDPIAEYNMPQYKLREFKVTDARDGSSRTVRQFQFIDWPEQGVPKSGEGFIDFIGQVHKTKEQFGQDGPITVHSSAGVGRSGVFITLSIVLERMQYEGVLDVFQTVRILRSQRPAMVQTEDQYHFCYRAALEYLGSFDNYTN", "assay": "Phosphatase assay using pNPP, DLAR D1 D2HSS", "format": "biochemical", "conditions": "CGH buffer pH 6.5, 100 mM NaCl, 2 mM DTT", "experimental": "as §1, §2"}},
  "note": "Values joined by “and” are separate entries in the source; they are usually repeats but may differ in a detail not shown here. Equal values may be shown once.",
  "data": [
    {"smiles": "O=[N+]([O-])c1ccc(OP(=O)(O)O)cc1", "note": "[pNPP, para-Nitrophenylphosphate]", "values": [
      {"measurement": "PTPase activity", "setting": "[1]", "value": "inactive enzyme"},
      {"measurement": "Kcat", "setting": "[2]", "value": "33.80 ± 0.59", "unit": "s⁻¹"},
      {"measurement": "Kcat/Km", "setting": "[2]", "value": "14.92 ± 0.98 x 10^3 sec^-1M^-1"},
      {"measurement": "Vmax", "setting": "[2]; Michaelis-Menten fit", "value": "24.89 µmol/min/mg and 24.89 ± 0.52 µmol/min/mg"},
      {"measurement": "Kcat", "setting": "[3]", "value": "16.10 ± 0.27", "unit": "s⁻¹"},
      {"measurement": "Kcat/Km", "setting": "[3]", "value": "16.03 ± 0.11 x 10^3 sec^-1M^-1"},
      {"measurement": "Vmax", "setting": "[3]; Michaelis-Menten fit", "value": "20.56 µmol/min/mg and 20.56 ± 0.34 µmol/min/mg"},
      {"measurement": "Kcat", "setting": "[4]", "value": "6.49 ± 0.17", "unit": "s⁻¹"},
      {"measurement": "Kcat/Km", "setting": "[4]", "value": "1.97 ± 0.10 x 10^3 sec^-1M^-1"},
      {"measurement": "Vmax", "setting": "[4]; Michaelis-Menten fit", "value": "5.84 ± 0.15", "unit": "µmol/min/mg"}
    ]}
  ]
}
